Target: T1, Human Neutrophil Elastase (HNE) (Homo sapiens, UniProt P08246)
T1 construct: Human Neutrophil Elastase (HNE) purified from serum; purchased Calbiochem 324681; host or cells: purified from human serum (so in the source)
T1 sequence (P08246 30-247 limits assumed): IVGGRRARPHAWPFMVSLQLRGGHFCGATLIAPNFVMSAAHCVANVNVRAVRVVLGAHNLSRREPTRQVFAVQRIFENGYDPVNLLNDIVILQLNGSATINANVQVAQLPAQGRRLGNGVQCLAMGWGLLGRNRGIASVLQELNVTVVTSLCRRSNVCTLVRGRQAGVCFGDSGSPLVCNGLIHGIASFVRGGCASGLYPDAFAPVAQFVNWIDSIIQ
Assay: Human Neutrophil Elastase Quenched-FRET Assay
Format: biochemical
Settings: HNE 1.7 nM, substrate MeOSuc-AAPV-AMC 100 μM, 15 min pre-incubation, 30 min incubation at room temperature; read-out: Inhibition of Human Neutrophil Elastase IC50
Description: Human Neutrophil Elastase Quenched-FRET Assay
HNE was stored in 50 mM sodium acetate (NaOAc), 200 mM sodium chloride (NaCl), pH 5.5 with added 30% glycerol at −20° C. […] The substrate was stored in dimethyl sulphoxide (DMSO) at −20° C. […] The assay buffer constitution was: 100 mM Tris(hydroxymethyl)aminomethane (TRIS) (pH 7.5) and 500 mM NaCl. The enzyme and the compounds were incubated at room temperature for 15 minutes. Then 30 μl substrate in assay buffer was added. The assay was incubated for 30 minutes at room temperature. […] The assay was then stopped by adding 60 μl stop solution (140 mM acetic acid, 200 mM sodium monochloroacetate, 60 mM sodium acetate, pH 4.3).

| SMILES | IC50 |
| --- | --- |
| CNC(=O)c1cc(-c2nc(N)sc2-c2ccc(Cl)cc2)c(C)n(-c2cccc(C(F)(F)F)c2)c1=O [Example 3, 5-[2-Amino-5-(4-chlorophenyl)-1,3-thiazol-4-yl]-N,6-dimethyl-2-oxo-1-[3-(trifluoromethyl)-phenyl]-1,2-dihydropyridine-3-carboxamide] | 0.26 nM |
| CNC(=O)c1cc(-c2ocnc2-c2ccc(Cl)cc2)c(C)n(-c2cccc(C(F)(F)F)c2)c1=O [Example 4, 5-[4-(4-Chlorophenyl)-1,3-oxazol-5-yl]-N,6-dimethyl-2-oxo-1-[3-(trifluoromethyl)phenyl]-1,2-dihydropyridine-3-carboxamide] | 1.6 nM |
| CNC(=O)c1cc(-c2nc(N)sc2-c2ccc(C#N)cc2)c(C)n(-c2cccc(C(F)(F)F)c2)c1=O [Example 5, 5-[2-Amino-5-(4-cyanophenyl)-1,3-thiazol-4-yl]-N,6-dimethyl-2-oxo-1-[3-(trifluoromethyl)phenyl]-1,2-dihydropyridine-3-carboxamide] | 0.26 nM |
| CNC(=O)c1cc(-c2ccnn2-c2ccc(C#N)cc2)c(C)n(-c2ccc(F)c(Cl)c2)c1=O [Example 6, 1-(3-Chloro-4-fluorophenyl)-5-[1-(4-cyanophenyl)-1H-pyrazol-5-yl]-N,6-dimethyl-2-oxo-1,2-dihydropyridine-3-carboxamide] | 0.93 nM |
